# Results from US9975882B2, “Heteroaromatic compounds as BTK inhibitors” (Boehringer Ingelheim International GmbH, priority 2015, dated 2018).
# Where two headings read alike, the source gives them in different places.
# Tests used:
# [1] = molecular target: human recombinant BTK (full length, His-tagged) (Homo sapiens (Human), UniProt Q06187); experiment: BTK Z'-LYTE assay; assay type: biochemical; conditions: 25 μM ATP;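 note: FRET readout of kinase phosphorylating a coumarin and fluorescein labelled synthetic peptide, detected via protease sensitivity of unphosphorylated versus phosphorylated substrate, incubated at 22 °C in 384-well plates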
# human recombinant BTK (full length, His-tagged), sequence (Q06187 whole entry): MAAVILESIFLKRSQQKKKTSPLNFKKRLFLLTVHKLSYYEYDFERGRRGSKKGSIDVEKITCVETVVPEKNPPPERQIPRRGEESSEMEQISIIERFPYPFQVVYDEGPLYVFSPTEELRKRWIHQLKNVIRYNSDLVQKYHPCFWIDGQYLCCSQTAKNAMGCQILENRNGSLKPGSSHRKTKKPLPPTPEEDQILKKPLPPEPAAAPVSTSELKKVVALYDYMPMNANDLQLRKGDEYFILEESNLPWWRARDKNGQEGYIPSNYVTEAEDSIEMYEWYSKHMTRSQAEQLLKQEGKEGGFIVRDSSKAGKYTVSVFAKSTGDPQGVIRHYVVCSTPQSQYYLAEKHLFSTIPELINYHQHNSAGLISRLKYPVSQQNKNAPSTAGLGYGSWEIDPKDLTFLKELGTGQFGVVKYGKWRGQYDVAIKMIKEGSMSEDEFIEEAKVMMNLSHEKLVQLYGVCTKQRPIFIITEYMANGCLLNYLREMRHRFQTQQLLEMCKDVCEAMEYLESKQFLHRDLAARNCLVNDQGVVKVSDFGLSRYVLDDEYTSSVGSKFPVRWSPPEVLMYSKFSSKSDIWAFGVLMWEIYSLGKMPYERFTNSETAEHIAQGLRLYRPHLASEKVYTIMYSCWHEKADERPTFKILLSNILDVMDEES
# Procedure: Z′-LYTE™ Assay (Life Technologies):
# (§3) The Z′-Lyte assay employs a FRET-based, coupled-enzyme format and is based on the differential sensitivity of phosphorylated and non-phosphorylated peptides to proteolytic Cleavage. The activity of human recombinant BTK (full length, His-tagged), BMX (full length, His-tagged) or Txk (full length, GST-tagged) is estimated by measuring the phosphorylation of a synthetic FRET peptide substrate labeled with Coumarin and Fluorescein. […] Incubations are carried out at 22° C. in black polypropylene 384-well plates (Corning).
# (§4) Representative compounds of the present invention are assessed for inhibition of BTK, BMX, and TXK measuring phosphorylation of a substrate (Z′-LYTE™ assay, Life Technologies) and TEC measuring displacement of a “tracer” (Lanthscreen® Eu Kinase Binding assay, Life Technologies).
# [2] = molecular target: human full length His-tagged BTK (Homo sapiens (Human), UniProt Q06187); experiment: BTK Lanthscreen Eu Kinase Binding assay; conditions: 2 nM BTK
# human full length His-tagged BTK, sequence (Q06187 whole entry): as above
# Procedure: BTK Lanthscreen® Eu Kinase Binding Assay:
# A Lanthscreen® Eu Kinase Binding assay (Life Technologies) is performed to quantitate the ability of test compounds to bind to BTK. The assay is based on the binding and displacement of Alexa Fluor647-labeled Kinase Tracer #236 to the ATP-binding site of human full length His-tagged BTK (Life Technologies cat #PV3587) with TR-FRET detection using a europium-labeled anti-His antibody. The assay is assembled in 384-well low volume NBS black plates (Corning) where 2 nM BTK and test compound in DMSO at varying concentrations are pre-incubated for 30 min at 28° C. in assay buffer consisting of 50 mM HEPES, pH 7.4, 10 mM MgCl2, 1 mM EGTA. 100 μM Na3VO4 and 0.01% Brij 35. Then, 2 nM of Eu-anti His antibody and 30 nM Kinase Tracer are added and incubated for 60 min at 28° C. Following incubation, TR-FRET signal is read on an Envision plate reader (Excitation: 340 nm; Emissions: 615 and 665 nm). The 665:615 nm emission ratio is calculated and converted to POC compared to control and blank wells.
# [3] = molecular target: human recombinant full length TEC (His-tagged) (Homo sapiens (Human), UniProt P42680); experiment: TEC Lanthscreen Eu Kinase Binding assay; conditions: 1 nM TEC
# human recombinant full length TEC (His-tagged), sequence (P42680 whole entry): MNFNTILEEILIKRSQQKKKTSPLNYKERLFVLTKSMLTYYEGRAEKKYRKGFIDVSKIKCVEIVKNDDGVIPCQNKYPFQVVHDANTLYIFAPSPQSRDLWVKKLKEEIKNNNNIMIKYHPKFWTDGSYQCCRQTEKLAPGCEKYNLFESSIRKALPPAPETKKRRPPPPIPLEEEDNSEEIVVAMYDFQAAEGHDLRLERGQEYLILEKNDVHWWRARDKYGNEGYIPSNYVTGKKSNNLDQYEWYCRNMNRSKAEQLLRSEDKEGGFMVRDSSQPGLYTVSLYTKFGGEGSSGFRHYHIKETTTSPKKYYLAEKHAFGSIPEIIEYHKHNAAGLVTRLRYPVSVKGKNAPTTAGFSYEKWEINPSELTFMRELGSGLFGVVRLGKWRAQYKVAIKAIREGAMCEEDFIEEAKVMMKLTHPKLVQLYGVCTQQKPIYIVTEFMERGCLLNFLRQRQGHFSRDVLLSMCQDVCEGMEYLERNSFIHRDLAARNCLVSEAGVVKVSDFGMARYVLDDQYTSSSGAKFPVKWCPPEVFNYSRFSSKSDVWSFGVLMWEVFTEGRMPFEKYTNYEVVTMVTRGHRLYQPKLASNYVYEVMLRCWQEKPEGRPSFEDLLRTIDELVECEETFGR
# [4] = molecular target: human recombinant Txk (full length, GST-tagged) (Homo sapiens (Human), UniProt P42681); experiment: TXK Z'-LYTE assay; conditions: read-out: TXK IC50, 100 μM ATP;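 note: FRET read-out of kinase phosphorylation of a synthetic peptide labelled with Coumarin and Fluorescein, scored by protease sensitivity of unphosphorylated peptide, incubated at 22 °C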
# human recombinant Txk (full length, GST-tagged), sequence (P42681 whole entry): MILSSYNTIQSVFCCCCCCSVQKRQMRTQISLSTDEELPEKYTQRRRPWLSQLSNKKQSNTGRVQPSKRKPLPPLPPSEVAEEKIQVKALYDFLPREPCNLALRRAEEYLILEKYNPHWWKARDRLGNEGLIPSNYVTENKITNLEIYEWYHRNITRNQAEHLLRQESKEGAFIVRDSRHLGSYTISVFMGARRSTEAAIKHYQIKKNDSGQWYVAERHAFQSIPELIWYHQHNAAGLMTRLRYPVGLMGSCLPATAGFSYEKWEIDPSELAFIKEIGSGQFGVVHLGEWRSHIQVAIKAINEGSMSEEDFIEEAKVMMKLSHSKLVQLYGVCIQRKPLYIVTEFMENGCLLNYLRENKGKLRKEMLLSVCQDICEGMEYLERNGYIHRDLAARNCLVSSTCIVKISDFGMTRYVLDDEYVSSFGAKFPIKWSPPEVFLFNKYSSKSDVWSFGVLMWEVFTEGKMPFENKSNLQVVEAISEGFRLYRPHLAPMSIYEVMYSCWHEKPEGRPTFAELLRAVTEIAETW
# Procedure: Z′-LYTE™ Assay (Life Technologies):
# as §3, §4
# [5] = system: BTK (IL-6 production in primary CD19+ B cells); experiment: Inhibition of IL-6 production in B cells co-stimulated with ODN 2006 and anti-hIgD; assay type: cell-based; conditions: B-cell, anti-human IgD + ODN 2006
# Procedure: Inhibition of IL-6 Production in B Cells Co-Stimulated with ODN 2006 and anti-hIgD
# Primary CD19+ B cells (AllCells #PB010F) are thawed and plated in RPMI containing 10% HI FBS in a 384-well tissue cultured plate at 20,000 cells/well. The cells are treated with test compound (0.5% DMSO final concentration) and incubated for 1 hour at 37° C., 5% CO2. Cells are then stimulated with 5 ug/mL Goat F(ab′)2 anti-human IgD (SouthernBiotech #2032) and 2 uM ODN 2006 (InvivoGen #tlrl-2006) and incubated for 18-24 hours at 37° C., 5% CO2. IL-6 in the supernatant is measured using Meso Scale Discovery kit #K211AKB-6.
# (§1) Representative compounds of the present invention are tested and show BTK inhibition (Table I). […] Additionally, compounds of the present invention, as represented by examples in Table II, are selective for BTK inhibition over other related kinases. […] In this table the BTK activity is measured by IL-6 production in primary CD19^+ B cells, and the EGFR activity is measured by EGFR phosphorylation in A431 cells.
# [6] = molecular target: EGFR (EGFR phosphorylation in A431 cells) (Homo sapiens (Human), UniProt P00533); experiment: Inhibition of EGFR autophosphorylation in A431 human epithelial cells stimulated with EGF; assay type: cell-based; conditions: EGF 60 ng/mL, read-out: A431 p-EGFR IC50
# EGFR (EGFR phosphorylation in A431 cells), sequence (P00533 25-1210): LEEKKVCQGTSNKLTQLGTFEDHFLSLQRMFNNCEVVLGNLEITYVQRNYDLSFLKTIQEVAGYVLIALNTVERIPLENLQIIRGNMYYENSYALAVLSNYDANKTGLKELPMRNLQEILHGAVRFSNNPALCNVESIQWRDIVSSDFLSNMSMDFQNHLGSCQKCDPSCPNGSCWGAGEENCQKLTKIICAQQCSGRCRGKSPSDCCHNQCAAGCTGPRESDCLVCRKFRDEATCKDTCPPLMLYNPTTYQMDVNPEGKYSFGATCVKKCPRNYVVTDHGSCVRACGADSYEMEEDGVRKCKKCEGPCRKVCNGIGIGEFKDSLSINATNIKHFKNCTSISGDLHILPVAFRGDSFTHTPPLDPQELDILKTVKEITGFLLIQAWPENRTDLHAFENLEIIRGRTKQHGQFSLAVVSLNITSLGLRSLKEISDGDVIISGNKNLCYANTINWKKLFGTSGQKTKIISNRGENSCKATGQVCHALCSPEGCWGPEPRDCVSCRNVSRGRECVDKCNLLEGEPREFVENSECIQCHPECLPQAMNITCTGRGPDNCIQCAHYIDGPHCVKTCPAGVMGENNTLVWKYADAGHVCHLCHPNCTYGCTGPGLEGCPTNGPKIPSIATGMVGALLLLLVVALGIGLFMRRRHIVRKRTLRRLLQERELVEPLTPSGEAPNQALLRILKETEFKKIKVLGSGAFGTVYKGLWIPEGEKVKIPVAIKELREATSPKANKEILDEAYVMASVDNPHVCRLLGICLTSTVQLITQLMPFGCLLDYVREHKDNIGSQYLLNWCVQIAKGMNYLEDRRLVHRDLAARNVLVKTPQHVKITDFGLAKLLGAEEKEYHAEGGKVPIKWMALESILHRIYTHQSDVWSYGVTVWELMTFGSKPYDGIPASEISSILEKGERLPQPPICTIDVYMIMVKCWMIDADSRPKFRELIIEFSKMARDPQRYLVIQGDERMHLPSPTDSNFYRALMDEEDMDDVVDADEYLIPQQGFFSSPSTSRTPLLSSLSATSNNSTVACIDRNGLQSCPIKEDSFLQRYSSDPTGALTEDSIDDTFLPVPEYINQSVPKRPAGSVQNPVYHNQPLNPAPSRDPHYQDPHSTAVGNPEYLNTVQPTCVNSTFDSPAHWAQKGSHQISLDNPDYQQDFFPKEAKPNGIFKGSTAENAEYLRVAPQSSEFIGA
# Procedure: Inhibition of EGFR Autophosphorylation in A431 Human Epithelial Cells Stimulated with Epithelial Growth Factor
# A431 cells (ATCC #CRL-1555 FZ) are thawed and plated in DMEM containing 10% FBS in a 384-well tissue culture treated plate at 15,000 cells/well. After incubating for 24 hours at 37° C., 5% CO2, the cells are treated with test compound (1% DMSO final concentration) and incubated for 16 hours at 37° C., 5% CO2. EGF (Millipore, 01-107) is added at a final concentration of 60 ng/mL and incubated for 10 minutes. The medium is removed, the cells are lysed, and phospho EGFR is measured (Meso Scale Diagnostics, N31CB-1).
# as §1
# [7] = system: mean arterial pressure (MAP); conditions: rat, in vivo; for 5-Day 24-h MAP Change versus Control: po
# Procedure: In-Vivo Assay—Comparison Between the Compounds of the Present Invention and Comparative Compounds A, B and C
# In a side-by-side in-vivo study, select compounds of the present invention and comparative compounds A-C are evaluated in telemetry-instrumented conscious rats to determine their effects on mean arterial pressure (MAP) at doses at or above therapeutically relevant concentrations.
# (§2) All animals (telemetry-instrumented) are single housed in metabolic cages. Rats are acclimated to the metabolic cage for at least 3 days and then dosed with vehicle for up to 4 days. Blood pressure, heart rate, and bodyweight are collected during the baseline period and animals are randomized into 3 groups based on these parameters (n=8-9/group). Treatment groups are: vehicle and test compound (10 mg/kg po and 30 mg/kg po qd); animals are treated with compound for 5 days. […] Mean arterial pressure (MAP) and heart rate (HR) are collected continuously throughout the study. Statistical analyses is performed using GraphPad Prism based on the average 24-hr mean value during five days of compound administration (one-way ANOVA with Dunnett's post-test vs. Vehicle; p<0.05 is considered statistically significant).
# [8] = Plasma compound exposure in rats (tail bleed, day 6); assay type: in vivo; conditions: rat
# Procedure: as §2
IC50 [1] [nM],IC50 [2] [nM],IC50 [3] [nM],IC50 [4] [nM],IC50 [5] [nM],IC50 [6] [nM],5-Day 24-h MAP Change versus Control ([7]; 10 mg/kg) [mmHg],5-Day 24-h MAP Change versus Control ([7]; 30 mg/kg) [mmHg],Cmax ([8]; 10 mg/kg po qd) [nM],Cmax ([8]; 30 mg/kg po qd) [nM],"5-Day 24-h MAP Change versus Control ([7]; 10 mg/kg, 5 days) [mmHg]","5-Day 24-h MAP Change versus Control ([7]; 30 mg/kg, 5 days) [mmHg]","Cmax ([8]; plasma, 10 mg/kg po qd) [nM]","Cmax ([8]; plasma, 30 mg/kg po qd) [nM]",Structure (SMILES),effect on mean arterial pressure (MAP) [7]
1.5,0.5,35,110,0.4,> 10000,,,,,,,,,CC#CC(=O)N1CC[C@]2(C1)C[C@H](n1nc(-c3cnn(Cc4ccccc4Cl)c3)c(C(N)=O)c1N)C2 [Example 54],
3,0.6,64,160,2.4,> 10000,,,,,,,,,CC#CC(=O)N1CC[C@]2(C1)C[C@H](n1nc(-c3cnn(Cc4ccc(F)c(C(F)(F)F)c4)c3)c(C(N)=O)c1N)C2 [Example 30],
2.5,0.7,67,79,1.5,> 10000,,,,,,,,,CC#CC(=O)N1CC[C@]2(C1)C[C@H](n1nc(-c3cnn(Cc4cc(F)ccc4Cl)c3)c(C(N)=O)c1N)C2 [Example 55],
2.7,0.5,34,310,1.1,> 10000,,,,,,,,,CC#CC(=O)N1CC2(CC(n3nc(-c4cnn(Cc5cccc(C(F)(F)F)c5)c4)c(C(N)=O)c3N)C2)C1 [Example 47],
8.3,1.3,130,600,4.5,> 10000,,,,,,,,,CC#CC(=O)N1CC[C@]2(C1)C[C@H](n1nc(-c3cnn(Cc4cccc(C(F)(F)F)c4)c3)c(C(N)=O)c1NC)C2 [Example 23],
0.9,,44,,,,3 ± 1,2 ± 1,182 ± 17,480 ± 53,,,,,"CC#CC(=O)N1CCC2(CC(n3nc(-c4ccc(OC(C)C)cc4)c(C(N)=O)c3N)C2)C1 (stereo not shown) [Compound B, 5-amino-1-(7-but-2-ynoyl-7-azaspiro[3.4]octan-2-yl)-3-(4-isopropoxyphenyl) pyrazole-4-carboxamide]",statistically significant increases in MAP
1.3,0.3,47,84,0.4,> 10000,,,,,,,,,CC#CC(=O)N1CC[C@]2(C1)C[C@H](n1nc(-c3cnn(Cc4cccc(F)c4Cl)c3)c(C(N)=O)c1N)C2 [Example 53],
7,1.2,100,260,0.5,> 10000,,,,,,,,,CC#CC(=O)N1CC[C@]2(C1)C[C@H](n1nc(-c3cn(Cc4cccc(C)c4)nc3C)c(C(N)=O)c1N)C2 [Example 52],
40,5.8,1100,1900,9.2,> 10000,,,,,,,,,CC#CC(=O)N1CC[C@]2(C1)C[C@H](n1nc(-c3c(C)nn(Cc4cccc(C(F)(F)F)c4)c3C)c(C(N)=O)c1N)C2 [Example 21],
1,0.2,22,50,0.5,> 10000,,,,,,,,,CC#CC(=O)N1CC[C@]2(C1)C[C@H](n1nc(-c3cnn(Cc4cccc(C(F)F)c4)c3)c(C(N)=O)c1N)C2 [Example 36],
13,1.5,220,430,2,> 10000,,,,,,,,,CC#CC(=O)N1CC[C@]2(C1)C[C@H](n1nc(-c3cnn(Cc4ccccc4C)c3)c(C(N)=O)c1N)C2 [Example 16],
1.5,0.4,65,43,1,> 10000,,,,,,,,,CC#CC(=O)N1CC[C@]2(C1)C[C@H](n1nc(-c3cnn(Cc4cccc(C(F)(F)F)c4C)c3)c(C(N)=O)c1N)C2 [Example 6],
,,6.8,22,,,,,,,4 ± 1,5 ± 1,644 ± 96,1730 ± 434,"C=CC(=O)Nc1cccc(Nc2nc(Nc3ccc(OCCOC)cc3)ncc2F)c1 [Compound C, N-(3-(5-fluoro-2-(4-(2-methoxyethoxy)phenylamino)pyrimidin-4-ylamino)phenyl)acrylamide]",statistically significant increases in MAP
1.4,0.5,120,100,1.1,> 10000,,,,,,,,,CC#CC(=O)N1CC[C@]2(C1)C[C@H](n1nc(-c3cnn(Cc4cccc(C(F)(F)F)c4C#N)c3)c(C(N)=O)c1N)C2 [Example 10],
5,0.9,160,220,2.3,> 10000,,,,,,,,,CC#CC(=O)N1CC[C@]2(C1)C[C@H](n1nc(-c3cn(Cc4cccc(C(F)(F)F)c4)nc3C)c(C(N)=O)c1N)C2 [Example 19],
,,,,,,,,,,3 ± 1,4 ± 1,319 ± 36,561 ± 183,"C=CC(=O)N1CCC[C@@H](n2nc(-c3ccc(Oc4ccccc4)cc3)c3c(N)ncnc32)C1 [Compound A, 1-[(3R)-3-[4-amino-3-(4-phenoxyphenyl)pyrazolo[3,4-d]pyrimidin-1-yl]-1-piperidyl]prop-2-en-1-one]",statistically significant increases in MAP
19,2.6,160,850,6.1,> 10000,,,,,,,,,CC#CC(=O)N1CC[C@]2(C1)C[C@H](n1nc(-c3ccn(Cc4cccc(C(F)(F)F)c4)n3)c(C(N)=O)c1N)C2 [Example 25],
0.8,0.3,18,12,1.9,> 10000,,,,,,,,,CC#CC(=O)N1CC[C@]2(C1)C[C@H](n1nc(-c3cnn(Cc4cccc(C5CC5)c4)c3)c(C(N)=O)c1N)C2 [Example 51],
2.2,0.6,120,150,0.7,> 10000,,,,,,,,,CC#CC(=O)N1CC[C@]2(C1)C[C@H](n1nc(-c3cnn(Cc4cccc(F)c4C(F)(F)F)c3)c(C(N)=O)c1N)C2 [Example 56],
18,2.6,430,3000,4,> 10000,,,,,,,,,C=CC(=O)N1CC[C@]2(C1)C[C@H](n1nc(-c3cnn(Cc4cccc(C(F)(F)F)c4F)c3)c(C(N)=O)c1N)C2 [Example 26],
